In article PMC9804470, “A Formylglycine‐Peptide for the Site‐Directed Identification of Phosphotyrosine‐Mimetic Fragments” (Chemistry (Weinheim an Der Bergstrasse, Germany), 2022):
Read-outs that look alike come from different tables or passages of the source. *1 amine or outer side, *2 acyl side, *3 side chain or, on linkers, in order; H or OH if unused. Where a SMILES comes first, the peptide text is derived from it. [ ]: non-standard residue; d: D form. The star is where a group is joined. ξ: configuration not given here. X3 = O=C1NC(=O)C(CC(N[*:1])C(=O)[*:2])C(=O)N1; X4 = O=S(=O)(Nc1ccc(*)cc1)C(F)(F)F; X1 = O=C(O)Cc1ccc(*)cc1; Dap = NC[C@H](N)C(=O)O; ξDap = NCC(N)C(=O)O

What was measured:
[1] = biological target: T1, PTP1B (Homo sapiens, UniProt P18031); experiment: Dynamic ligation screening of nucleophilic fragments with formylglycine peptide 3, PTP1B; type: biochemical; details: 3 100 μM pre-incubated 5 min, fragment 200 μM, 30 min RT before DiFMUP, triplicates
T1 construct: catalytic domain of human PTP1B (amino acids 1–321); His7 (N, cleaved yes); made in house; host or cells: E. coli Rosetta (DE3)
T1 sequence (P18031 1-321): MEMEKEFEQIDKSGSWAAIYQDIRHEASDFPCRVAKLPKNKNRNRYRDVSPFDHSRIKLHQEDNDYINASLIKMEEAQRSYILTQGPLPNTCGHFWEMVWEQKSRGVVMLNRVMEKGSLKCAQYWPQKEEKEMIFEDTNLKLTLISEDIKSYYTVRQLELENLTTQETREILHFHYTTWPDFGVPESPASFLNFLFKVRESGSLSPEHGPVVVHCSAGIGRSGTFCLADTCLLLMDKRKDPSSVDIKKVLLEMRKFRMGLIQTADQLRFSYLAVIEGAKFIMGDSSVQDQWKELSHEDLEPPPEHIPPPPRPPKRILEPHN
Method: (§1) Enzyme activity assays of SHP2 and PTP1B: The catalytic activity of SHP2 catalytic domain and PTP1B were monitored using the fluorogenic substrate DiFMUP (6,8‐difluoro‐4‐methylumbelliferyl phosphate). Phosphatase reactions were performed at room temperature in 384‐well black plate, clear flat bottom, low flange, non‐binding surface (Corning, Cat# 3766) using a final volume of 20 μL and the following assay buffer conditions: 50 mM MOPS, pH=6.5, 200 mM NaCl, 50 μM TCEP, 0.03 % Tween‐20 (freshly added prior to each measurement). Test compounds were dissolved in DMSO or buffer at stock concentrations of 50, 20 or 10 mM and serially diluted. Enzyme (5 nM PTP1B or 2.5 nM SHP2 catalytic domain) and different concentrations of the tested compounds were incubated in buffer for 30–60 min at room temperature. Measurements were performed with a final concentration of 2.5 % DMSO unless stated otherwise at 37 °C and were performed in triplicate. Enzymatic reactions were started by adding DiFMUP (Invitrogen, cat# D6567) concentrations matching the experimentally determined KM values of the enzymes of 67 μM (PTP1B) or 72 μM (SHP2). Samples were excited at a wavelength of 360 nm and emitted fluorescence was recorded at 460 for 10 min using a microplate reader (infinite M1000 Pro, Tecan). Initial slope of fluorescence was determined in triplicate and IC50 values were calculated with GraphPad Prism 5. Determined IC50 values were converted into the corresponding KI values applying the Cheng Prusoff equation KI =IC50 /(1+[S]/KM ).
Dynamic ligation screening of nucleophilic fragments with 3: Under assay conditions described above, PTP1B or SHP2 were pre‐incubated with 3 (100 μM) for 5 min. Subsequently, (200 μM) of the respective fragments were added and the resulting mixtures were incubated for 30 min at RT, prior to DiFMUP addition.

[2] = biological target: T2, catalytic domain of human PTP1B (Homo sapiens, UniProt P18031); experiment: Enzyme activity assay of PTP1B with fluorogenic substrate DiFMUP; type: biochemical; details: SD
T2 construct: catalytic domain of human PTP1B (amino acids 1–321); His7 (N, cleaved yes); made in house; host or cells: E. coli Rosetta (DE3)
T2 sequence (P18031 1-321): T1 sequence (P18031 1-321)
Method: Protein Expression and purification: DNA encoding the catalytic domain of human PTP1B (amino acids 1–321) was subcloned into the pQLinkH vector. The gene encoding the N‐terminal His7‐tagged protein was over‐expressed at 17 °C in E. coli Rosetta (DE3). […] The His7‐tag was cleaved with tobacco etch virus protease at 20 °C prior to the gel‐filtration step. The catalytic domain of human SHP2 (amino acids 225–541) was purified from E. coli B21 (DE3). The overexpressed protein was fused to an N‐terminal His10‐tag. Cells were harvested and resuspended in 25 mM Tris‐HCl (pH=7.5), 50 mM NaCl, 1 % (v/v) Triton X‐100, 10 % (v/v) glycerol, 1 mM DTT. After cell lysis, debris was removed by centrifugation at 12,000 rpm for 30 min. The supernatant was filtered prior to affinity purification with Ni‐NTA agarose (Qiagen). The slurry was washed with 50 mM Tris‐HCl (pH=8.0), 500 mM NaCl supplemented with 25 mM imidazole. Reasonably pure protein was eluted with 200–300 mM imidazole. The purification was completed by size‐exclusion chromatography with a Superdex 75 16/600 column (GE Healthcare) equilibrated with 20 mM HEPES‐NaOH (pH=7.5), 50 mM NaCl, 1 mM DTT.
as §1

[3] = biological target: T3, catalytic domain of human SHP2 (Homo sapiens, UniProt Q06124); experiment: Enzyme activity assay of SHP2 catalytic domain with fluorogenic substrate DiFMUP; type: biochemical
T3 construct: catalytic domain of human SHP2 (amino acids 225–541); His10 (N); made in house; host or cells: E. coli B21 (DE3)
T3 sequence (Q06124 225-541): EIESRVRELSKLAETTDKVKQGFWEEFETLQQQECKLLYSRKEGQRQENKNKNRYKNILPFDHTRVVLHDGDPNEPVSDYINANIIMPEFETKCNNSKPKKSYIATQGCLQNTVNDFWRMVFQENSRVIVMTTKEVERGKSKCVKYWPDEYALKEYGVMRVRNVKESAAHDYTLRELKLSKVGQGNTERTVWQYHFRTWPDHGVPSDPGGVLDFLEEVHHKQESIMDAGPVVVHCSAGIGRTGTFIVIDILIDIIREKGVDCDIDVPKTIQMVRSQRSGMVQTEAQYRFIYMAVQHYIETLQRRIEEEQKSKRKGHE
Method: Enzyme activity assays of SHP2 and PTP1B: The catalytic activity of SHP2 catalytic domain and PTP1B were monitored using the fluorogenic substrate DiFMUP (6,8‐difluoro‐4‐methylumbelliferyl phosphate). Phosphatase reactions were performed at room temperature in 384‐well black plate, clear flat bottom, low flange, non‐binding surface (Corning, Cat# 3766) using a final volume of 20 μL and the following assay buffer conditions: 50 mM MOPS, pH=6.5, 200 mM NaCl, 50 μM TCEP, 0.03 % Tween‐20 (freshly added prior to each measurement). Test compounds were dissolved in DMSO or buffer at stock concentrations of 50, 20 or 10 mM and serially diluted. Enzyme (5 nM PTP1B or 2.5 nM SHP2 catalytic domain) and different concentrations of the tested compounds were incubated in buffer for 30–60 min at room temperature. […] Enzymatic reactions were started by adding DiFMUP (Invitrogen, cat# D6567) concentrations matching the experimentally determined KM values of the enzymes of 67 μM (PTP1B) or 72 μM (SHP2). Samples were excited at a wavelength of 360 nm and emitted fluorescence was recorded at 460 for 10 min using a microplate reader (infinite M1000 Pro, Tecan). Initial slope of fluorescence was determined in triplicate and IC50 values were calculated with GraphPad Prism 5. Determined IC50 values were converted into the corresponding KI values applying the Cheng Prusoff equation KI =IC50 /(1+[S]/KM ).

[4] = system: HGF‐induced tyrosine phosphorylation of ERK 1/2 in HeLa cells; experiment: Western blot of p-ERK in HGF-stimulated HeLa cells; type: cell-based; details: 1 h treatment; for Concentration giving (complete) dephosphorylation of Erk / inhibition of Erk phosphorylation: HGF 20 ng/well, Western blot p-ERK
Method: Cellular experiments: HeLa cells were cultivated in DMEM buffer with 10 % FCS in 75 cm^2 cell culture flasks at 37 °C, 5 % CO2. At confluency of about 75 %, cells were seeded in a density of 250,000 cells/mL in 6‐well plates and incubated for 24 h. Subsequently, medium was removed and replaced by DMEM buffer with 0.1 % BSA (1 mL per well) and incubated for another 16 h. Hepatocyte growth factor (HGF, 20 ng/well) and test compounds in different final concentrations (1 μL, in DMSO) were added. Control wells received the same amount of DMSO (final concentration 0.1 %) or no addition. Plates were incubated for 1 h, then washed with cold PBS and shaken with lysis buffer (mPer reagent ThermoScientific # 78501 with 1 mM NaF, 2 mM Na3VO4, 25× protease inhibitor) for 5 min. Cell lysates were transferred to Eppendorf cups and centrifuged at 4 °C with 10,000 g for 10 min. […] The blot was incubated with anti‐phospo‐ERK as primary antibody (Cell Signaling # 9106, dilution 1 : 2000 in TBS‐Tween/ 2 % BSA) overnight at 4 °C, washed 3×5 min with TBS‐Tween, and incubated with anti‐mouse IgG‐hrp as secondary antibody (Santa Cruz # sc2031, 1 : 6000 in TBS‐ Tween/ 2 % BSA, RT, 1.5 h). The blot was again washed 3×5 min with TBS‐Tween and imaged with the ECL system (ThermoScientific # 34080) at Syngene PXi Imager. From the same lysis sample, under the same conditions, ERK 1/2 and β‐tubulin were blotted. For β‐tubulin, the antibody incubation time was adjusted to 2 h at RT.

Molecule: Nc1ccc(C(=O)O)cc1 [Compound F5, 4‐amino benzoic acid]
- Enhancement of inhibition of PTP1B by fragment in combination with peptide 3 (fragment ligation assay) [1]: inactive

Molecule: CC(=O)N[C@@H](CC(=O)O)C(=O)N[C@@H](C)C(=O)N[C@@H](CC(=O)O)C(=O)N[C@@H](CCC(=O)O)C(=O)NC(CNc1ccc(CC(=O)O)cc1)C(=O)N[C@@H](CC(C)C)C(N)=O (stereo partly drawn) [Compound 15] (Ac-DADE[ξDap](X1)L-NH2)
- Ki ([2]; read-out: KI PTP1B): 138 ± 21 µM

Molecule: O=C(O)COc1ccc(N/N=C2\C(=O)N(c3ccc([N+](=O)[O-])cc3)N=C2c2ccc([N+](=O)[O-])cc2)cc1 [Compound 23, (Z)‐2‐(4‐(2‐(1,3‐Bis‐(4‐nitrophenyl)‐5‐oxo‐1,5‐dihydro‐4H‐pyrazol‐4‐ylidene)‐hydrazinyl)‐phenoxy)‐acetic acid]
- Ki ([3]; catalytic domain of SHP2, DiFMUP, from IC50 by Cheng-Prusoff, GS-493 sentence carries ref 26, read-out: KI SHP2): 0.275 µM
- Concentration giving (complete) dephosphorylation of Erk / inhibition of Erk phosphorylation [4]: > 100 µM

Molecule: CC(=O)N[C@@H](CC(=O)O)C(=O)N[C@@H](C)C(=O)N[C@@H](CC(=O)O)C(=O)N[C@@H](CCC(=O)O)C(=O)NC(CC1C(=O)NC(=O)NC1=O)C(=O)N[C@@H](CC(C)C)C(N)=O (stereo partly drawn) [Compound 17] (Ac-DADE[X3]L-NH2)
- Ki [2]: 123 ± 16 µM

Molecule: CC(=O)N[C@@H](CC(=O)O)C(=O)N[C@@H](C)C(=O)N[C@@H](CC(=O)O)C(=O)N[C@@H](CCC(=O)O)C(=O)N[C@@H](CNc1ccc(NS(=O)(=O)C(F)(F)F)cc1)C(=O)N[C@@H](CC(C)C)C(N)=O [Compound 18] (Ac-DADE[Dap](X4)L-NH2)
- Ki ([2]; read-out: KI PTP1B): 202 ± 21 µM

Molecule: O=C1/C(=N\Nc2ccc(NS(=O)(=O)C(F)(F)F)cc2)C(c2ccc([N+](=O)[O-])cc2)=NN1c1ccc([N+](=O)[O-])cc1 [Compound 22]
- Ki ([3]; DiFMUP 72 μM (= KM), enzyme 1.5 nM, triplicate, from IC50 by Cheng-Prusoff (IC50/2), read-out: KI SHP2 (Table 2, footnote a)): 5.9 µM
- Effect on HGF‐induced tyrosine phosphorylation of ERK 1/2 ([4]; Western blot, DMSO control): decreased
- Concentration giving (complete) dephosphorylation of Erk / inhibition of Erk phosphorylation [4]: 25 µM

Molecule: N‐(4‐aminophenyl)‐sulfonic acid [Compound F6]
- Enhancement of inhibition of PTP1B by fragment in combination with peptide 3 (fragment ligation assay) [1]: inactive
